Measured values published in the SangsterLogP compilation.

Test: method code SF-AS, from DOI: 10.1248/cpb.30.4175, PMID: 7165882

## CN(C)C(=O)OCc1cccc(Cl)c1
  logP: 2.82

## CN(C)C(=O)OCc1ccc([N+](=O)[O-])cc1
  logP: 1.95

## CN(C)C(=O)OCc1ccc(OC(=O)N(C)C)cc1
  logP: 1.59

## CN(C)C(=O)OCc1ccc(Br)cc1
  logP: 3.01

## CN(C)C(=O)OCc1ccc(Cl)cc1
  logP: 2.93

## CN(C)C(=O)OCc1ccc(C#N)cc1
  logP: 1.67

## CN(C)C(=O)OCc1ccccc1
  logP: 2.16

## COc1cccc(COC(=O)N(C)C)c1
  logP: 2.09

## CN(C)C(=O)OCc1ccc(I)cc1
  logP: 3.32

## CN(C)C(=O)OCc1ccc(OCc2ccccc2)cc1
  logP: 3.27

## Cc1ccc(COC(=O)N(C)C)cc1
  logP: 2.63

## COc1ccc(COC(=O)N(C)C)cc1
  logP: 2.2

## CN(C)C(=O)OCc1ccc(F)cc1
  logP: 2.3
